# Assay results: patent publication US11351151B2, “Compound having anticancer activity and preparation method and application” (3D Medicines (Beijing) Co., Ltd., priority 2016, dated 2022)
# Columns and labels:
# Test in all cases: Cell proliferation assay (Alamar Blue)
# Format in all cases: cell-based
# 22RV1 = details: Homo sapiens, 144 h; 22RV1 tumor cell line; 6 days
# Procedure: (§1) 1. Instruments and Materials • Thermo 311 CO2 incubator; Haier biosafety cabinet; Molecular Devices microplate reader; Xiangyi brand L530 desktop low speed centrifuge; Olympus IX51 inverted fluorescence microscope, DMEM, RPMI 1640, MEM, DMEM/F12 1:1 medium, Fetal bovine serum, 0.25% trypsin solution, phosphate buffer (Thermo Fisher Shanghai Co., Ltd.); sigma dimethyl sulfoxide (DMSO), resazurin; 54 commercial tumor cell lines (including 26 liver cancer cell lines). Experimental drugs: compounds 1-12 and active drug Linifanib; chemotherapeutic drug Doxorubicin (HY-15142; Shanghai Qianyuan Biomedical Technology Co., Ltd.).
# (§2) 2. Experimental Methods • 2.1 Cultivation of different cell lines • 54 cell lines were cultured in a culture medium containing fetal bovine serum and placed in a 5% CO 2 incubator at 37° C. for incubation. The cells were all grown in an adherent state, and the growth was observed under an inverted microscope, and subculture was performed when the cell confluence rate reached 80%-90%. The proportion and quantity of passage were determined by experimental needs. The ratio of subculture of this cell line was generally 1:2^˜1:3. • 2.2 inhibition effect on the proliferation of different tumor cell lines • Cell test: 54 cell lines in logarithmic growth phase were inoculated in 96-well culture plates at 500^˜1×10^4/well (the optimal seeding density of each cell line was determined in pre-experiment), After incubating at 37° C. for 4 h in a 5% CO2 humidification incubator, added 10 μL of compounds 1-12 or Linifanib to each well, and tested 9 drug concentration gradients for each compound (diluted from the highest concentration of the test by 3.16 times). The solubility of each compound was different at a starting concentration of 30 or 100 μM, respectively. The QC reference compound Doxorubicin was added simultaneously to each cell line test, and the final drug concentrations were 10, 3.16, 1, 0.31, 0.1, 0.03, 0.01, 0.003, and 0.001 μM, respectively. In addition, a positive control group (100% inhibition) and a negative control group (0% inhibition) were set at the same time. The drug group was repeated for 2 wells per concentration, and the positive control group and the negative control group were repeated for 6 wells. After the culture was continued for 6 days in the incubator, AlamarBlue test operation was followed; • AlamarBlue test procedure: Incubated with 10 μL of AlamarBlue reagent per well for 1-4 h, shook for 1-2 min, MD microplate reader EX: 560 nm, EM: 590 nm wavelength to measure fluorescence, recorded the results, calculated the cell inhibition rate of the compound of the invention. Cell inhibition rate (%)=(A0% inhibition−A administration)/(A0% inhibition−A100% inhibition)×100%, and then using the method of nonlinear regression using Graph Pad Prism 5.0 or MATILAB software (usually using four parameters) to graph and obtain a drug dose response curve to obtain an IC50 value of the compound of the present invention acting on a cancer cell line.
# AN3CA = details: Homo sapiens, AN3-CA, 144 h; AN3CA (endometrial cells); 6 days
# Procedure: as §1, §2
# DLD1 = details: Homo sapiens, DLD-1, 144 h; DLD1 tumor cell line; 6 days
# Procedure: as §1, §2
# HCCLM3 = details: Homo sapiens, 144 h; HCCLM3 tumor cell line; 6 days
# Procedure: as §1, §2
# HEPG2 = details: Homo sapiens, 144 h; HEPG2 liver cancer cell line; 6 days
# Procedure: as §1, §2
# HLE = details: Homo sapiens, 144 h; HLE liver cancer cell line; 6 days
# Procedure: as §1, §2
# HT55 = details: Homo sapiens, 144 h; HT55 tumor cell line; 6 days
# Procedure: as §1, §2
# HUH6 = details: Homo sapiens, HuH-6, 144 h; HUH6 liver cancer cell line; 6 days
# Procedure: as §1, §2
# Hep3B2.1-7 = details: 144 h; Hep3B2.1-7 liver cancer cell line; 6 days
# Procedure: as §1, §2
# JHH7 = details: 144 h; JHH7 liver cancer cell line; 6 days
# Procedure: as §1, §2
# K562 = details: Homo sapiens, 144 h; K562 tumor cell line; 6 days
# Procedure: as §1, §2
# KASUMI-1 = details: Homo sapiens, 144 h; KASUMI-1 (leukemia cells); 6 days
# Procedure: as §1, §2
# Li-7 = details: 144 h; Li-7 liver cancer cell line; 6 days
# Procedure: as §1, §2
# MDA-MB-231 = details: Homo sapiens, 144 h; MDA-MB-231 tumor cell line; 6 days
# Procedure: as §1, §2
# NCl-H2170 = details: 144 h; NCl-H2170 tumor cell line; 6 days
# Procedure: as §1, §2
# NCl-H526 = details: 144 h; NCl-H526 tumor cell line; 6 days
# Procedure: as §1, §2
# NCl-H661 = details: 144 h; NCl-H661 tumor cell line; 6 days
# Procedure: as §1, §2
# SK-HEP-1 = details: Homo sapiens, SK-HEP1, 144 h; SK-HEP-1 liver cancer cell line; 6 days
# Procedure: as §1, §2
# SNU398 = details: Homo sapiens, SNU-398, 144 h; SNU398 liver cancer cell line; 6 days
# Procedure: as §1, §2
# SNU423 = details: Homo sapiens, SNU-423, 144 h; SNU423 liver cancer cell line; 6 days
# Procedure: as §1, §2
# SNU739 = details: SNU-739, 144 h; SNU739 liver cancer cell line; 6 days
# Procedure: as §1, §2
# SNU886 = details: SNU-886, 144 h; SNU886 liver cancer cell line; 6 days
# Procedure: as §1, §2
# TE-15 = details: Homo sapiens, 144 h; TE-15 tumor cell line; 6 days
# Procedure: as §1, §2
IC50 (22RV1),IC50 (DLD1),IC50 (HCCLM3),IC50 (HEPG2),IC50 (HUH6),IC50 (Hep3B2.1-7),IC50 (K562),IC50 (MDA-MB-231),IC50 (NCl-H2170),IC50 (NCl-H526),IC50 (NCl-H661),IC50 (SK-HEP-1),IC50 (SNU398),IC50 (SNU423),SMILES,IC50 (AN3CA),IC50 (HLE),IC50 (HT55),IC50 (JHH7),IC50 (KASUMI-1),IC50 (Li-7),other results
6.69 µM,9.86 µM,11.4 µM,0.45 µM,0.13 µM,1.59 µM,3.99 µM,3.95 µM,0.97 µM,6.6 µM,7.09 µM,4.59 µM,2.61 µM,9.03 µM,Cc1ccc(F)c(NC(=O)Nc2ccc(-c3cccc4c3c(N)nn4C(=O)C[C@H](N)C(=O)N[C@@H](CCC(=O)O)C(=O)O)cc2)c1 [Compound 1],0.31 µM,1.98 µM,16.8 µM,1.81 µM,0.051 µM,5.35 µM,IC50 (SNU739): 4.56 µM; IC50 (SNU886): 1.47 µM; IC50 (TE-15): 7.59 µM
> 100 µM,> 100 µM,82 µM,19 µM,53.8 µM,69.8 µM,44.2 µM,96.5 µM,84 µM,> 100 µM,99.5 µM,64 µM,96.5 µM,> 100 µM,Cc1ccc(F)c(NC(=O)Nc2ccc(-c3cccc4c3c(N)nn4C(=O)CCCCCNC(=O)C[C@H](N)C(=O)N[C@@H](CCC(=O)O)C(=O)O)cc2)c1 [Compound 4],28.7 µM,47.5 µM,> 100 µM,45.9 µM,1.71 µM,47.2 µM,IC50 (SNU739): 73.8 µM; IC50 (SNU886): 96.2 µM; IC50 (TE-15): > 100 µM
> 30 µM,> 30 µM,> 30 µM,> 30 µM,10.6 µM,> 30 µM,> 30 µM,> 30 µM,> 30 µM,> 30 µM,> 30 µM,> 30 µM,> 30 µM,10.9 µM,Cc1ccc(F)c(NC(=O)Nc2ccc(-c3cccc4c3c(N)nn4C(=O)CCCCCCCCCCCNC(=O)C[C@H](N)C(=O)O)cc2)c1 [Compound 12],2.08 µM,> 30 µM,> 30 µM,> 30 µM,0.05 µM,> 30 µM,IC50 (SNU739): > 30 µM; IC50 (SNU886): > 30 µM; IC50 (TE-15): > 30 µM
> 100 µM,97 µM,> 100 µM,5.83 µM,> 100 µM,13 µM,23.9 µM,32.1 µM,22.5 µM,> 100 µM,86.7 µM,29.2 µM,18.1 µM,> 100 µM,Cc1ccc(F)c(NC(=O)Nc2ccc(-c3cccc4c3c(N)nn4C(=O)CCCCCCCCCCCNC(=O)C[C@H](N)C(=O)N[C@@H](CCC(=O)O)C(=O)O)cc2)c1 [Compound 7],2.94 µM,36.3 µM,> 100 µM,9.98 µM,0.096 µM,34.5 µM,IC50 (SNU739): 37.4 µM; IC50 (SNU886): 22 µM; IC50 (TE-15): 63.6 µM
7.5 µM,11.6 µM,6.67 µM,0.83 µM,> 30 µM,1.96 µM,10.8 µM,4.03 µM,4 µM,7.8 µM,13.3 µM,7.11 µM,1.91 µM,9.24 µM,"Cc1ccc(F)c(NC(=O)Nc2ccc(-c3cccc4[nH]nc(N)c34)cc2)c1 [Linifanib, reference compound]",0.19 µM,3.93 µM,22.3 µM,1.83 µM,0.01 µM,5.43 µM,IC50 (SNU739): 5.45 µM; IC50 (SNU886): 4.48 µM; IC50 (TE-15): 3.6 µM

SMILES,IC50 (22RV1),IC50 (DLD1),IC50 (HCCLM3),IC50 (HEPG2),IC50 (HUH6),IC50 (Hep3B2.1-7),IC50 (K562),IC50 (MDA-MB-231),IC50 (NCl-H2170),IC50 (NCl-H526),IC50 (NCl-H661),IC50 (SK-HEP-1),IC50 (SNU398),IC50 (SNU423),IC50 (AN3CA),IC50 (HLE),IC50 (HT55),IC50 (JHH7),IC50 (KASUMI-1),IC50 (Li-7),other results
Cc1ccc(F)c(NC(=O)Nc2ccc(-c3cccc4c3c(N)nn4C(=O)CCCCCNC(=O)C[C@H](N)C(=O)N[C@@H](CCC(=O)N[C@@H](CCC(=O)N[C@@H](CCC(=O)N[C@@H](CCC(=O)N[C@@H](CCC(=O)N[C@@H](CCC(=O)N[C@@H](CCC(=O)N[C@@H](CCC(=O)N[C@@H](CCC(=O)O)C(=O)O)C(=O)O)C(=O)O)C(=O)O)C(=O)O)C(=O)O)C(=O)O)C(=O)O)C(=O)O)cc2)c1 [Compound 6],> 100 µM,> 100 µM,> 100 µM,43.4 µM,88.7 µM,95.6 µM,74.3 µM,> 100 µM,> 100 µM,> 100 µM,> 100 µM,> 100 µM,> 100 µM,> 100 µM,55.4 µM,68.9 µM,> 100 µM,83.2 µM,4.94 µM,82 µM,IC50 (SNU739): > 100 µM; IC50 (SNU886): > 100 µM; IC50 (TE-15): > 100 µM
Cc1ccc(F)c(NC(=O)Nc2ccc(-c3cccc4c3c(N)nn4C(=O)CCCCCCCCCCCNC(=O)C[C@H](N)C(=O)N[C@@H](CCC(=O)N[C@@H](CCC(=O)N[C@@H](CCC(=O)N[C@@H](CCC(=O)N[C@@H](CCC(=O)N[C@@H](CCC(=O)N[C@@H](CCC(=O)N[C@@H](CCC(=O)N[C@@H](CCC(=O)O)C(=O)O)C(=O)O)C(=O)O)C(=O)O)C(=O)O)C(=O)O)C(=O)O)C(=O)O)C(=O)O)cc2)c1 [Compound 9],> 100 µM,> 100 µM,> 100 µM,11 µM,50.3 µM,52.8 µM,> 100 µM,81.1 µM,84 µM,> 100 µM,> 100 µM,> 100 µM,82.7 µM,> 100 µM,8.42 µM,53.3 µM,> 100 µM,42.2 µM,0.23 µM,49.3 µM,IC50 (SNU739): > 100 µM; IC50 (SNU886): > 100 µM; IC50 (TE-15): 88.9 µM
